# Data reported in patent US6066628A, “Non-iron metalloporphyrins and methods of use” (Emory University, priority 1998, dated 2000).
# Legend:
# bacteria = type: cell-based
# yeasts = assay: Yeast growth inhibition; type: cell-based
# Candida glabrata = assay: MIC 80 microdilution, clinical yeast isolates; type: cell-based
# Description: (§1) MICs of Ga-UPI against selected clinical yeast isolates. Growth was
# (§2) scored after 24 and 48 hours of incubation.
# Cryptococcus neoformans = assay: MIC 80 microdilution, clinical yeast isolates; type: cell-based
# Description: as §1, §2
# Candida albicans = assay: MIC 80 microdilution, clinical yeast isolates; type: cell-based
# Description: as §1, §2
# Candida tropicalis = assay: MIC 80 microdilution, clinical yeast isolates; type: cell-based
# Description: as §1, §2
# M. smegmatis [1] = assay: Minimal bactericidal concentration; type: cell-based, Mycobacterium smegmatis; details: reduces plating efficiency more than 99.9%; minimal exposure to light
# Candida krusei = assay: MIC 80 microdilution, clinical yeast isolates; type: cell-based
# Candida pillosus = assay: MIC 80 microdilution, clinical yeast isolates; type: cell-based
# Y. enterocolitica [2] = assay: Minimal bactericidal concentration; type: cell-based; details: reduces plating efficiency more than 99.9%; minimal exposure to light
# S. aureus [3] = assay: Minimal bactericidal concentration; type: cell-based, Staphylococcus aureus; details: reduces plating efficiency more than 99.9%; minimal exposure to light
# Description: Minimal bactericidal concentrations (MBCs) were determined essentially the same way as MICs except that the amount of killing with a particular concentration of porphyrin derivative was determined by plating on solid microbiological media (LB plates or LB+Tween 80). Media were solidified by the incorporation of 1.5% agar (Difco Laboratories). Concentrations of porphyrins that produced 99.9% reduction in bacterial counts were considered bactericidal [Hindler et al. (1994) supra].
# MBC were determined by plating bacterial cultures that have been incubate
# in the presence of MPs at concentrations higher than MIC. MBC was defined
# as a concentration of a particular MP which reduces the plating efficienc
# more than 99.9%. Experiments were done with minimal exposure to light
# (addition of porphyrins waa done in the presence of artifical light).
# M tuber. H37Pa = assay: Disc diffusion sensitivity test; type: cell-based, Mycobacterium tuberculosis; details: disc ~50 μg MP
# S. pyogenes A = assay: Disc diffusion sensitivity test; type: cell-based, Streptococcus pyogenes; details: disc ~50 μg MP
# E. aerogenes = assay: Disc diffusion sensitivity test; type: cell-based, Enterobacter aerogenes; details: E. aerogenes; disc ~50 μg MP
# M. tuberculosis = type: cell-based, Mycobacterium tuberculosis; details: pathogenic M. tuberculosis
# S. aureus [4] = assay: Disc diffusion sensitivity test; type: cell-based, Staphylococcus aureus; details: S. aureus; disc ~50 μg MP
# Y. enterocolitica [5] = assay: microbe, parasite or virus in culture; type: cell-based
# K. oxytoca = assay: Disc diffusion sensitivity test; type: cell-based, Klebsiella oxytoca; details: K. oxytoca; disc ~50 μg MP
# M. smegmatis [6] = type: cell-based, Mycobacterium smegmatis
# F. menigosepticum = assay: Disc diffusion sensitivity test; type: cell-based, Flavobacterium meningosepticum; details: F. meningosepticum; disc ~50 μg MP
# S. aureus [7] = type: cell-based, Staphylococcus aureus; details: methicillin-resistant S. aureus IR219; Nutrient broth (Table 2)
# Y. enterocolitica [8] = assay: Disc diffusion sensitivity test; type: cell-based; details: disc ~50 μg MP
# M. avium = details: M. avium
# K. pneumoniae = assay: Disc diffusion sensitivity test; type: cell-based, Klebsiella pneumoniae; details: K. pneumoniae; disc ~50 μg MP
# Ps. aeruginosa = assay: Disc diffusion sensitivity test; type: cell-based, Pseudomonas aeruginosa; details: disc ~50 μg MP; note: key: -: resistant; N: not determined
# [9] = system: Streptococcus pyogenes JRS4; type: cell-based; details: S. pyogenes JRS4 (Table 4)
# E. faecalis = assay: Disc diffusion sensitivity test; type: cell-based, Enterococcus faecalis; details: disc ~50 μg MP; note: key: -: resistant; N: not determined
# M tuber. H37Rv = assay: Disc diffusion sensitivity test; type: cell-based, Mycobacterium tuberculosis; details: disc ~50 μg MP
# E. coli = assay: Disc diffusion sensitivity test; type: cell-based, Escherichia coli; details: E. coli; disc ~50 μg MP
# P. mirabills = assay: Disc diffusion sensitivity test; type: cell-based, Proteus mirabilis; details: P. mirabilis; disc ~50 μg MP
# C. freundii = assay: Disc diffusion sensitivity test; type: cell-based, Citrobacter freundii; details: C. freundii; disc ~50 μg MP
compound,measurement,setting,value
"O=C(O)CCC1=C(CC(=O)O)C2=Cc3c(CC(=O)O)c(CCC(=O)O)c4[n]3[Ga]([Cl])[n]3c(c(CCC(=O)O)c(CC(=O)O)c3=CC3=NC(=C4)C(CC(=O)O)=C3CCC(=O)O)=CC1=N2 [Ga-UPIII, Ga-uroporphyrin III]",antibacterial activity,bacteria,seriously limited in their antibacterial activities
same,inhibition of growth of yeast,yeasts,able to inhibit growth of yeast
"CC1=C(CCC(=O)O)C2=Cc3c(C)c(CCC(=O)O)c4[n]3[Ga]([Cl])[n]3c(c(C)c(CCC(=O)O)c3=CC1=N2)=CC1=NC(=C4)C(C)=C1CCC(=O)O [Ga-COPI, Ga-coproporphyrin I]",antibacterial activity,bacteria,seriously limited in their antibacterial activities
same,inhibition of growth of yeast,yeasts,able to inhibit growth of yeast
"O=C(O)CCC1=C(CC(=O)O)C2=NC1=Cc1c(CC(=O)O)c(CCC(=O)O)c3[n]1[Ga]([Cl])[n]1c(c(CCC(=O)O)c(CC(=O)O)c1=CC1=NC(=C3)C(CC(=O)O)=C1CCC(=O)O)=C2 [Ga-UPI, Ga-uroporphyrin I]",MIC 80,"Candida glabrata; 97-049, 24 hours",8 µg/mL
same,MIC 80,"Candida glabrata; 97-049, 48 hours",32 µg/mL
same,MIC 80,"Candida glabrata; 97-050, 24 hours",8 µg/mL
same,MIC 80,"Candida glabrata; 97-050, 48 hours",16 µg/mL
same,MIC 80,"Candida glabrata; 97-051, 24 hours",8 µg/mL
same,MIC 80,"Candida glabrata; 97-051, 48 hours",32 µg/mL
same,MIC 80,"Candida glabrata; 97-052, 24 hours",8 µg/mL
same,MIC 80,"Candida glabrata; 97-052, 48 hours",32 µg/mL
same,MIC 80,"Candida glabrata; 97-053, 24 hours",8 µg/mL
same,MIC 80,"Candida glabrata; 97-053, 48 hours",16 µg/mL
same,MIC 80,"Cryptococcus neoformans; 97-044, 24 hours",16 µg/mL
same,MIC 80,"Cryptococcus neoformans; 97-044, 48 hours",16 µg/mL
same,MIC 80,"Cryptococcus neoformans; 97-045, 24 hours",16 µg/mL
same,MIC 80,"Cryptococcus neoformans; 97-045, 48 hours",32 µg/mL
same,MIC 80,"Cryptococcus neoformans; 97-046, 24 hours",16 µg/mL
same,MIC 80,"Cryptococcus neoformans; 97-046, 48 hours",16 µg/mL
same,MIC 80,"Cryptococcus neoformans; 97-047, 24 hours",8 µg/mL
same,MIC 80,"Cryptococcus neoformans; 97-047, 48 hours",16 µg/mL
same,MIC 80,"Cryptococcus neoformans; 97-048, 24 hours",16 µg/mL
same,MIC 80,"Cryptococcus neoformans; 97-048, 48 hours",16 µg/mL
same,MIC 80,"Candida albicans; 97-010, 24 hours",2 µg/mL
same,MIC 80,"Candida albicans; 97-010, 48 hours",8 µg/mL
same,MIC 80,"Candida albicans; 97-012, 24 hours",2 µg/mL
same,MIC 80,"Candida albicans; 97-012, 48 hours",8 µg/mL
same,MIC 80,"Candida albicans; 97-014, 24 hours",2 µg/mL
same,MIC 80,"Candida albicans; 97-014, 48 hours",8 µg/mL
same,MIC 80,"Candida albicans; 97-015, 24 hours",2 µg/mL
same,MIC 80,"Candida albicans; 97-015, 48 hours",8 µg/mL
same,MIC 80,"Candida albicans; 97-031, 24 hours",2 µg/mL
same,MIC 80,"Candida albicans; 97-031, 48 hours",16 µg/mL
same,MIC 80,"Candida tropicalis; 97-054, 24 hours",16 µg/mL
same,MIC 80,"Candida tropicalis; 97-054, 48 hours",32 µg/mL
same,MIC 80,"Candida tropicalis; 97-055, 24 hours",8 µg/mL
same,MIC 80,"Candida tropicalis; 97-055, 48 hours",16 µg/mL
same,Minimal bactericidal concentration (MBC),M. smegmatis [1],10
same,antibacterial activity,bacteria,seriously limited in their antibacterial activities
same,MIC 80,"Candida krusei; 97-058, 24 hours",1 µg/mL
same,MIC 80,"Candida krusei; 97-058, 48 hours",4 µg/mL
same,MIC 80,"Candida krusei; 97-059, 24 hours",2 µg/mL
same,MIC 80,"Candida krusei; 97-059, 48 hours",8 µg/mL
same,MIC 80,"Candida krusei; ATCC-6258, 24 hours",1 µg/mL
same,MIC 80,"Candida krusei; ATCC-6258, 48 hours",2 µg/mL
same,MIC 80,"Candida pillosus; 97-056, 24 hours",1 µg/mL
same,MIC 80,"Candida pillosus; 97-056, 48 hours",2 µg/mL
same,MIC 80,"Candida pillosus; 97-057, 24 hours",2 µg/mL
same,MIC 80,"Candida pillosus; 97-057, 48 hours",8 µg/mL
same,Minimal bactericidal concentration (MBC),Y. enterocolitica [2],10
same,Minimal bactericidal concentration (MBC),S. aureus [3],10
same,inhibition of growth of yeast,yeasts,able to inhibit growth of yeast
Indium (III) protoporphyrin IX chloride [In-PPIX],diameter (mm) of the inhibition zone,M tuber. H37Pa,17 mm
same,diameter (mm) of the inhibition zone,S. pyogenes A,13 mm
same,Minimal bactericidal concentration (MBC),M. smegmatis [1],10
same,diameter (mm) of the inhibition zone,E. aerogenes,9 mm
same,sensitivity (preliminary experiments),M. tuberculosis,sensitive
same,diameter (mm) of the inhibition zone,S. aureus [4],15 mm
same,Minimal inhibitory concentration (MIC),Y. enterocolitica [5],0.2
same,antibacterial activity,Y. enterocolitica [5],inhibitory
same,diameter (mm) of the inhibition zone,K. oxytoca,9 mm
same,antibacterial activity,M. smegmatis [6]; M. smegmatis,inhibitory
same,Minimal inhibitory concentration (MIC),"M. smegmatis [6]; M. smegmatis LR222, LB + Tween 80 (Table 2)",0.4 µg/mL
same,diameter (mm) of the inhibition zone,F. menigosepticum,-
same,Minimal inhibitory concentration (MIC),S. aureus [7],1.6 µg/mL
same,diameter (mm) of the inhibition zone,Y. enterocolitica [8],12 mm
same,sensitivity (preliminary experiments),M. avium,sensitive
same,diameter (mm) of the inhibition zone,K. pneumoniae,9 mm
same,diameter (mm) of the inhibition zone,Ps. aeruginosa,-
same,MIC,[9],0.1 µg/mL
same,diameter (mm) of the inhibition zone,E. faecalis,-
same,diameter (mm) of the inhibition zone,M tuber. H37Rv,-
same,Minimal bactericidal concentration (MBC),Y. enterocolitica [2],> 13
same,Minimal bactericidal concentration (MBC),S. aureus [3],> 13
same,diameter (mm) of the inhibition zone,E. coli,-
same,diameter (mm) of the inhibition zone,P. mirabills,9 mm
same,diameter (mm) of the inhibition zone,C. freundii,9 mm
